Where a SMILES comes first, the peptide text is derived from it. Bridges are numbered along the chain shown (N, C = ends). [ ]: non-standard residue; d: D form. The star is where a group is joined. Ileψ(thiazoline)Cys = CC[C@H](C)[C@H](N)C1=N[C@H](C(=O)*)CS1; dOrn = NCCC[C@@H](N)C(=O)O
Assays:
[1] = target: T1, Alpha-1A adrenergic receptor (Rattus norvegicus, UniProt P43140); assay: DRUGMATRIX: Alpha-1A adrenergic receptor radioligand binding (ligand: prazosin); assay type: cell membranes, Wistar, Submaxillary gland, Membrane; conditions: Not Active = under 50% inhibition at 10 µM
T1 sequence (P43140 whole entry): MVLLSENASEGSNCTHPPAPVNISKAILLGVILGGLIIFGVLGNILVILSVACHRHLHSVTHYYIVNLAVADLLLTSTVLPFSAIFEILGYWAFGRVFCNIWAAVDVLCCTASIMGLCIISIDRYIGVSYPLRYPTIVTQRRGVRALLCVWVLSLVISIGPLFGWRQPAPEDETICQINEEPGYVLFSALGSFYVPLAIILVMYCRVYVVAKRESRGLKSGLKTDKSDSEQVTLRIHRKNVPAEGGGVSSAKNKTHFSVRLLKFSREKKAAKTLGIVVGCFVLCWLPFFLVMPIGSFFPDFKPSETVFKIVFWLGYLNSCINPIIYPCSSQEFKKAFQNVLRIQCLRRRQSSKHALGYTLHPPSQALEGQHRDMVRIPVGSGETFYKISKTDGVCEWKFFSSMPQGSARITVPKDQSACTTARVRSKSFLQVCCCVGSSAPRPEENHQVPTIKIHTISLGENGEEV

[2] = target: Beta-3 adrenergic receptor (Homo sapiens, UniProt P13945); assay: DRUGMATRIX: Adrenergic beta3 radioligand binding (ligand: [125I] Cyanopindolol); assay type: cell membranes, HEK293, Membrane; conditions: hek293; Not Active = under 50% inhibition at 10 µM
D(1A) dopamine receptor = D(1A) dopamine receptor (Homo sapiens, UniProt P21728); assay: DRUGMATRIX: Dopamine D1 radioligand binding (ligand: [3H] SCH-23390); assay type: cell membranes, CHO, Membrane; conditions: cho; Not Active = under 50% inhibition at 10 µM
[3] = DRUGMATRIX: GABAA, Flunitrazepam, Central radioligand binding (ligand: [3H] Flunitrazepam); assay type: cell membranes, Rattus norvegicus, Wistar, Brain, Membrane; conditions: Not Active = under 50% inhibition at 10 µM
Histamine H2 receptor = Histamine H2 receptor (Homo sapiens, UniProt P25021); assay type: cell membranes, CHO-K1, Membrane; conditions: cho-k1; further: in other assays of this panel Not Active means under 50% inhibition at 10 µM
[4] = DRUGMATRIX: Nicotinic Acetylcholine radioligand binding (ligand: [125I] Epibatidine); assay type: cell membranes, Membrane; conditions: imr-32; Not Active = under 50% inhibition at 10 µM
[5] = target: Epidermal growth factor receptor (Homo sapiens, UniProt P00533); assay: DRUGMATRIX: Protein Tyrosine Kinase, EGF Receptor enzyme inhibition (substrate: Poly(Glu:Tyr)); assay type: cell-based, Insect cells; conditions: insect cells; Not Active = under 50% inhibition at 10 µM
Epidermal growth factor receptor, sequence (P00533 whole entry): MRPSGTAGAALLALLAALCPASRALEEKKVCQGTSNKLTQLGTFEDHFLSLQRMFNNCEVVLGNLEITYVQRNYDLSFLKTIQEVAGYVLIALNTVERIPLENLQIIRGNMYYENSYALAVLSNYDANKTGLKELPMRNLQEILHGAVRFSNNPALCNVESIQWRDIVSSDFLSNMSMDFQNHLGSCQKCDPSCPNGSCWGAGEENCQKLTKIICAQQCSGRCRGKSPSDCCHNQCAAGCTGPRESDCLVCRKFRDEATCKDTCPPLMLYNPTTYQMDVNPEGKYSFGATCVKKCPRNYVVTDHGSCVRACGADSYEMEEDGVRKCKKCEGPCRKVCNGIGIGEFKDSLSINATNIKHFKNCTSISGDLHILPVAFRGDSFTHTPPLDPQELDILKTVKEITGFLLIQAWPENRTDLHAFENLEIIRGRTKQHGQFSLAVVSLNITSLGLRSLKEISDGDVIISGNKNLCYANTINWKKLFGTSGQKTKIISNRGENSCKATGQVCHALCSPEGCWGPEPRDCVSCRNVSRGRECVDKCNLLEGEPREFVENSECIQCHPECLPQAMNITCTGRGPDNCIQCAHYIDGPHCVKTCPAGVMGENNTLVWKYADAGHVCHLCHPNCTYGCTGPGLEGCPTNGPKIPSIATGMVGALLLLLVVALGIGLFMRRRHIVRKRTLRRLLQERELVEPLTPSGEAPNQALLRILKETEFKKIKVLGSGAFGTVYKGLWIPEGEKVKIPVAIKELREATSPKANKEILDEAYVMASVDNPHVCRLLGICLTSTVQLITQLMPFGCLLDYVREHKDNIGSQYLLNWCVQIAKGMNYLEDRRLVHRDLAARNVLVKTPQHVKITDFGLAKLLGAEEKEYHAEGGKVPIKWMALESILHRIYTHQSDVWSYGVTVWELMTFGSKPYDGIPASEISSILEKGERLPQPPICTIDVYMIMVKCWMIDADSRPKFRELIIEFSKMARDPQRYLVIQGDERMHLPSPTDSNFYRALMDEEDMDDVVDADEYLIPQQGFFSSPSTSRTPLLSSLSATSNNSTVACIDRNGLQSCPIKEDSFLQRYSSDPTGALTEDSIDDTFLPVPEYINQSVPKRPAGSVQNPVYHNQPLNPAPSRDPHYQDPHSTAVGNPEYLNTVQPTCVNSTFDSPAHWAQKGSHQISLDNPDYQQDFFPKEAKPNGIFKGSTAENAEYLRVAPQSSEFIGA

Histamine H2 receptor, sequence (P25021 whole entry): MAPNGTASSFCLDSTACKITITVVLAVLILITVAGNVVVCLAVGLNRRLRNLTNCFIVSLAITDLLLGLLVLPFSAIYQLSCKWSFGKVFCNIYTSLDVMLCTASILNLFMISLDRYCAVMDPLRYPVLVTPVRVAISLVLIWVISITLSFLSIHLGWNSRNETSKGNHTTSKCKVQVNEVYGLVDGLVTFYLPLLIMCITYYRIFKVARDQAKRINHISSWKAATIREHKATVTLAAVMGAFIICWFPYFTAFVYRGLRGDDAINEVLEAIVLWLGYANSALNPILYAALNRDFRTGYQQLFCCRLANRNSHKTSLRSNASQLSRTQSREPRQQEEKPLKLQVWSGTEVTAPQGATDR
Beta-3 adrenergic receptor, sequence (P13945 whole entry): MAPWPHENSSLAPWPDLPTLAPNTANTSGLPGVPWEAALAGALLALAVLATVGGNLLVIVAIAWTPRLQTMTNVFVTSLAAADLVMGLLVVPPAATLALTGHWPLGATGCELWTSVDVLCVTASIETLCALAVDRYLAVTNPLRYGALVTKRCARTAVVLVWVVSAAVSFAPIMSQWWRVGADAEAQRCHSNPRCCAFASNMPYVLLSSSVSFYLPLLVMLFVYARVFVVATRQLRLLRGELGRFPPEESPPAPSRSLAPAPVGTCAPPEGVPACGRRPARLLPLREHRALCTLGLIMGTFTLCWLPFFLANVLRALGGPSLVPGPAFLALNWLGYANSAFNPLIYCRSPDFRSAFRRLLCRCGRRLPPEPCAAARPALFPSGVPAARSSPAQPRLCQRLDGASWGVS
D(1A) dopamine receptor, sequence (P21728 whole entry): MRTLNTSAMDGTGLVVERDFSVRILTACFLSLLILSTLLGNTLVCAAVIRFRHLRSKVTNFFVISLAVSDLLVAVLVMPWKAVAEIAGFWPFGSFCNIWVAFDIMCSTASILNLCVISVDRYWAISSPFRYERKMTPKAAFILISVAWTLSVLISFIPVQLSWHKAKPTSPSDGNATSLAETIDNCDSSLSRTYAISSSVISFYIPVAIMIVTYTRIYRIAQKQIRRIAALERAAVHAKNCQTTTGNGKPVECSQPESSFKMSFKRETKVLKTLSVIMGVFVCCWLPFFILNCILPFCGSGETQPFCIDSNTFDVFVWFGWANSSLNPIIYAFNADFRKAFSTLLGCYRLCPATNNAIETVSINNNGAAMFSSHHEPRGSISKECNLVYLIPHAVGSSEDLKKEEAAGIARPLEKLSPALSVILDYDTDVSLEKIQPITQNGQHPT

Cn1cnc([N+](=O)[O-])c1Sc1ncnc2nc[nH]c12 [AZATHIOPRINE]
Not Active: IC50 [1] | IC50 [2] | IC50 (D(1A) dopamine receptor) | IC50 [3] | Ki [3] | IC50 (Histamine H2 receptor) | IC50 [4] | Ki [4] | IC50 [5]

COC1=CC(=O)C[C@@H](C)[C@]12Oc1c(Cl)c(OC)cc(OC)c1C2=O [GRISEOFULVIN]
Not Active: IC50 [1] | IC50 [2] | IC50 (D(1A) dopamine receptor) | IC50 [3] | Ki [3] | IC50 (Histamine H2 receptor) | IC50 [4] | Ki [4] | IC50 [5]

O=C1CN=C(c2ccccc2)c2cc([N+](=O)[O-])ccc2N1 [NITRAZEPAM]
0.0446 µM: Ki ([3]; read-out: Ki)
Not Active: IC50 [1] | IC50 [2] | IC50 (D(1A) dopamine receptor) | IC50 (Histamine H2 receptor) | IC50 [4] | Ki [4] | IC50 [5]
0.0547 µM: IC50 ([3]; read-out: IC50)

CN(C)CCCC1(c2ccc(F)cc2)OCc2cc(C#N)ccc21 (stereo unspecified) [CITALOPRAM]
0.711 µM: Ki ([1]; read-out: Ki)
Not Active: IC50 [2] | IC50 (D(1A) dopamine receptor) | IC50 [3] | Ki [3] | IC50 (Histamine H2 receptor) | IC50 [4] | Ki [4] | IC50 [5]
1.76 µM: IC50 ([1]; read-out: IC50)

CCCSc1ccc2nc(NC(=O)OC)[nH]c2c1 [ALBENDAZOLE]
Not Active: IC50 [1] | IC50 [2] | IC50 (D(1A) dopamine receptor) | IC50 [3] | Ki [3] | IC50 (Histamine H2 receptor) | IC50 [4] | Ki [4] | IC50 [5]

Oc1cccc2cccnc12 [OXYQUINOLINE]
Not Active: IC50 [1] | IC50 [2] | IC50 (D(1A) dopamine receptor) | IC50 [3] | Ki [3] | IC50 (Histamine H2 receptor) | IC50 [4] | Ki [4] | IC50 [5]

CCCc1cc(=O)[nH]c(=S)[nH]1 [PROPYLTHIOURACIL]
Not Active: IC50 [1] | IC50 [2] | IC50 (D(1A) dopamine receptor) | IC50 [3] | Ki [3] | IC50 (Histamine H2 receptor) | IC50 [4] | Ki [4] | IC50 [5]

Nc1nc2c(ncn2COC(CO)CO)c(=O)[nH]1 [GANCICLOVIR]
Not Active: IC50 [1] | IC50 [2] | IC50 (D(1A) dopamine receptor) | IC50 [3] | Ki [3] | IC50 (Histamine H2 receptor) | IC50 [4] | Ki [4] | IC50 [5]

CC1(C)S[C@@H]2[C@H](NC(=O)[C@H](NC(=O)N3CCNC3=O)c3ccccc3)C(=O)N2[C@H]1C(=O)O [AZLOCILLIN]
Not Active: IC50 [1] | IC50 [2] | IC50 (D(1A) dopamine receptor) | IC50 [3] | Ki [3] | IC50 (Histamine H2 receptor) | IC50 [4] | Ki [4] | IC50 [5]

CCOC(=O)OC(C)OC1=C(C(=O)Nc2ccccn2)N(C)S(=O)(=O)c2ccccc21 (stereo unspecified) [AMPIROXICAM]
Not Active: IC50 [1] | IC50 [2] | IC50 (D(1A) dopamine receptor) | IC50 [3] | Ki [3] | IC50 (Histamine H2 receptor) | IC50 [4] | Ki [4] | IC50 [5]

O=P1(NCCCl)OCCCN1CCCl (stereo unspecified) [IFOSFAMIDE]
Not Active: IC50 [1] | IC50 [2] | IC50 (D(1A) dopamine receptor) | IC50 [3] | Ki [3] | IC50 (Histamine H2 receptor) | IC50 [4] | Ki [4] | IC50 [5]

O=C1NC(=O)C(c2ccccc2)(c2ccccc2)N1 [PHENYTOIN]
Not Active: IC50 [1] | IC50 [2] | IC50 (D(1A) dopamine receptor) | IC50 [3] | Ki [3] | IC50 (Histamine H2 receptor) | IC50 [4] | Ki [4] | IC50 [5]

O=C1CCc2cc(OCCCCc3nnnn3C3CCCCC3)ccc2N1 [CILOSTAZOL]
Not Active: IC50 [1] | IC50 [2] | IC50 (D(1A) dopamine receptor) | IC50 [3] | Ki [3] | IC50 (Histamine H2 receptor) | IC50 [4] | Ki [4] | IC50 [5]

C=C1CC[C@H](O)C/C1=C/C=C1\CCC[C@]2(C)[C@@H]([C@H](C)/C=C/[C@H](C)C(C)C)CC[C@@H]12 [ERGOCALCIFEROL]
Not Active: IC50 [1] | IC50 [2] | IC50 (D(1A) dopamine receptor) | IC50 [3] | Ki [3] | IC50 (Histamine H2 receptor) | IC50 [4] | Ki [4] | IC50 [5]

NCC(=O)O [GLYCINE]
Not Active: IC50 [1] | IC50 [2] | IC50 (D(1A) dopamine receptor) | IC50 [3] | Ki [3] | IC50 (Histamine H2 receptor) | IC50 [4] | Ki [4] | IC50 [5]

CN1C(C(=O)Nc2ccccn2)=C(O)c2ccccc2S1(=O)=O [PIROXICAM]
Not Active: IC50 [1] | IC50 [2] | IC50 (D(1A) dopamine receptor) | IC50 [3] | Ki [3] | IC50 (Histamine H2 receptor) | IC50 [4] | Ki [4] | IC50 [5]

CC(=O)[C@@]1(O)CC[C@H]2[C@@H]3C[C@H](C)C4=CC(=O)C=C[C@]4(C)[C@@]3(F)[C@@H](O)C[C@@]21C [FLUOROMETHOLONE]
Not Active: IC50 [1] | IC50 [2] | IC50 (D(1A) dopamine receptor) | IC50 [3] | Ki [3] | IC50 (Histamine H2 receptor) | IC50 [4] | Ki [4] | IC50 [5]

CCC1(c2ccccc2)C(=O)NCNC1=O [PRIMIDONE]
Not Active: IC50 [1] | IC50 [2] | IC50 (D(1A) dopamine receptor) | IC50 [3] | Ki [3] | IC50 (Histamine H2 receptor) | IC50 [4] | Ki [4] | IC50 [5]

CC(C)(Oc1ccc(CCNC(=O)c2ccc(Cl)cc2)cc1)C(=O)O [BEZAFIBRATE]
Not Active: IC50 [1] | IC50 [2] | IC50 (D(1A) dopamine receptor) | IC50 [3] | Ki [3] | IC50 (Histamine H2 receptor) | IC50 [4] | Ki [4] | IC50 [5]

COc1c(N2CCNC(C)C2)c(F)cc2c(=O)c(C(=O)O)cn(C3CC3)c12 (stereo unspecified) [GATIFLOXACIN]
Not Active: IC50 [1] | IC50 [2] | IC50 (D(1A) dopamine receptor) | IC50 [3] | Ki [3] | IC50 (Histamine H2 receptor) | IC50 [4] | Ki [4]

Cc1ccccc1N1CCN(CCc2nnc3n2CCCC3)CC1 [DAPIPRAZOLE]
Not Active: IC50 [2] | IC50 (D(1A) dopamine receptor) | IC50 [3] | Ki [3] | IC50 (Histamine H2 receptor) | IC50 [4] | Ki [4] | IC50 [5]

CC[C@H](C)[C@H](N)C1=N[C@H](C(=O)N[C@@H](CC(C)C)C(=O)N[C@H](CCC(=O)O)C(=O)N[C@H](C(=O)N[C@H]2CCCCNC(=O)[C@H](CC(N)=O)NC(=O)[C@@H](CC(=O)O)NC(=O)[C@H](Cc3cnc[nH]3)NC(=O)[C@@H](Cc3ccccc3)NC(=O)[C@H]([C@@H](C)CC)NC(=O)[C@@H](CCCN)NC2=O)[C@@H](C)CC)CS1 [BACITRACIN] ({Ileψ(thiazoline)Cys}-L[dE]IK[dOrn]I[dF]H[dD]N; lactam 4-C)
Not Active: IC50 [1] | IC50 [2] | IC50 (D(1A) dopamine receptor) | IC50 [3] | Ki [3] | IC50 (Histamine H2 receptor) | IC50 [4] | Ki [4]

— ChEMBL document CHEMBL1909046, “DrugMatrix in vitro pharmacology data”
